# Experimental data taken from US20240360137A1 (Novartis AG, priority 2023, published 2024).
# Key:
# [1] = system: RB phosphorylation (Ser 807/811) in OVCAR3 xenograft tumors; test: In vivo pharmacodynamic assessment in Cyclin E amplified OVCAR3 xenograft model (RB phosphorylation by MSD); parameters: species or system NSG mice; conditions: Mus musculus, 3 days, 1 hour after the last dose; for inhibition at 30 mg/kg: OVCAR-3, 30 mg/kg twice daily (BID) oral
# From the text: Cyclin-dependent kinase 2 (CDK2) is a member of the protein kinase family. It plays an important role in regulating various events of the eukaryotic cell division cycle. CDK2 is involved in the inactivation of the retinoblastoma protein (RB) by phosphorylation which then allows for the G1 to S phase transition of the cell cycle. Overexpression of cyclin E, the obligate binding partner of CDK2, can cause abnormal regulation of the cell cycle, which is directly associated with hyperproliferation of cancer cells. Therefore, CDK2 is regarded as a potentially impactful therapeutic target for cancer treatment. The purpose of these studies was to evaluate the PK/PD relationship of CDK2 inhibitors in Cyclin E amplified cancer cell lines in vivo in immunodeficient mice. Plasma and tumor tissues were collected for PK analysis and PD assays (read out of RB phosphorylation inhibition) after 3 days of dosing of the CDK2 inhibitor.
# (§1) The Cyclin E amplified ovarian cancer cell line OVCAR3 was tested to be free of Mycoplasma and murine viruses using the IDEXX Impact 8 panel. Cells were cultured in RPMI 1640 media supplemented with 20% FBS for fewer than 5 passages after initial thawing and prior to cell implantation into immunodeficient mice. Cells were harvested and resuspended in sterile PBS containing 50% Matrigel. Ten million viable cells were injected at a volume of 0.2 ml per mouse into the flank of immunocompromised NSG mice (1 implant per animal). When tumors reached a mean volume of 200-300 mm^3, mice were randomized and treatments were initiated. Compounds were formulated in 10% HPBCD (hydroxypropyl beta cyclodextrin) and administered orally, twice a day, in a volume of 10 ml/kg. The dosing volume was adjusted based on individual mouse body weight on the day of dosing. Pharmacodynamic markers were evaluated on day 3.
# For terminal PD biomarker analysis, mice were euthanized following 3 days of treatment (1 hour post 5th dose). […] RB phosphorylation levels of the resulting tumor protein lysates were then determined by MSD. […] Values were calculated and normalized to the untreated controls. […]
# [2] = PK analysis of plasma in OVCAR3 xenograft study; format: in vivo, NSG mice; conditions: 60 mg/kg BID oral, compared to Compound 1 and Compound 2 at 30 mg/kg BID
# Procedure: as §1
# For determination of compound plasma concentrations, serial blood collections were performed at designated timepoints after dosing. Blood was collected in EDTA-lined tubes and placed on wet ice. Within 30 minutes of collection, blood was centrifuged, and the plasma supernatants were aliquoted and stored at −20 C until analyzed. […] CDK2 inhibitor concentrations were measured by LC-MS/MS analysis on API 4500, API 5500+, or Sciex 7500 instruments. […]
# CDK4/cyclinD1 = CDK4/cyclinD1 (Homo sapiens, UniProt P11802); test: CDKi biochemical assay (TR-FRET, phosphorylation of S780 on RB1 peptide); conditions: CDK4/cyclinD1 20 pM, 1 mM ATP, 60 min at 25° C.
# Outline: (§2)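 Avi-tagged, biotinylated CDK4/cyclinD1 (20 pM) or CDK6/cyclinD3 (10 pM) phosphorylates 200 nM His-MBP-RB1[773-924] at S780 with 1 mM ATP in HEPES pH 7.5/MgCl2, 60 min, 25° C. After EDTA quench, Eu anti-pRB(S780)/SA-APC TR-FRET is read after 3 h. Apparent IC50 comes from % activity versus log concentration.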
# CDK6/cyclinD3 = CDK6/cyclinD3 (Homo sapiens, UniProt Q00534); test: as above; conditions: CDK6/cyclinD3 10 pM, 1 mM ATP, 60 min at 25° C.
# Outline: as §2
# CDK2/CyclinE1 = CDK2/CyclinE1 (Homo sapiens, UniProt P24941); test: as above; conditions: CDK2/CyclinE1 100 pM, 1 mM ATP, 60 min at 25° C.
# Outline: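 CDK2/CyclinE1 (Avi-tag, 100 pM; CDK2 E. coli-expressed) phosphorylated His-MBP-RB1[773-924] (200 nM) at S780 with 1 mM ATP in HEPES pH 7.5/MgCl2/DTT, 60 min at 25° C. After EDTA quench, TR-FRET detection ran 3 h (Eu anti-p-RB S780, SA-APC). Apparent IC50 came from percent activity versus log concentration.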
# CDK1/CyclinB1 = CDK1/CyclinB1 (Homo sapiens, UniProt P06493); test: as above; conditions: CDK1/CyclinB1 10 pM, 1 mM ATP, 60 min at 25° C.
# Outline: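 CDK1/CyclinB1 (10 pM, Avi-tagged, insect-cell expressed) phosphorylated S780 of His-MBP-RB1[773-924] (200 nM) with 1 mM ATP in HEPES pH 7.5, 10 mM MgCl2, 1 mM DTT, 60 min at 25 °C. After EDTA quench, TR-FRET detection (Eu anti-pRB S780, SA-APC) for 3 h; apparent IC50 from percent activity versus log concentration.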
structure (smiles),measurement,setting,value
CCOc1n[nH]cc1Nc1ncc2c(n1)N([C@@H]1CCC[C@@H](O)C1)C(=O)C21CC1 [Compound 2],inhibition at 30 mg/kg,[1],~80%
COc1n[nH]cc1Nc1ncc2c(n1)N([C@@H]1CCC[C@@H](O)C1)C(=O)C21CC1 [Compound 1],inhibition at 30 mg/kg,[1],~80%
"CS(=O)(=O)N1CC[C@H](Nc2ncc3c(n2)N([C@@H]2CCC[C@@H](O)C2)C(=O)C32CC2)[C@H](F)C1 [Compound 3, reference compound]",exposure,[2],lower exposure
same,inhibition at 60 mg/kg,"[1]; OVCAR-3, 60 mg/kg twice daily (BID) oral",~50%
"O=C1N([C@@H]2CCC[C@@H](O)C2)c2nc(Nc3cnn4c3CNCC4)ncc2C12CC2 [Example 9, 7′-((1R,3R)-3-hydroxycyclohexyl)-2′-((4,5,6,7-tetrahydropyrazolo[1,5-a]pyrazin-3-yl)amino)spiro[cyclopropane-1,5′-pyrrolo[2,3-d]pyrimidin]-6′(7′H)-one]",IC50,CDK4/cyclinD1,≥ 10 µM
same,IC50,CDK6/cyclinD3,≥ 10 µM
same,IC50,CDK2/CyclinE1,0.268 µM
same,IC50,CDK1/CyclinB1,≥ 10 µM
